Laboratory results reported in ChEMBL document CHEMBL3885861, “Open TG-GATES”.

Organism: Rattus norvegicus
Assay: Open TG-GATES - Regimen: Single
Assay type: toxicity, organism-based, Sprague-Dawley
Parameters: regimen Single, gender Male, age 6 weeks
Settings: in vivo, po, route gavage; for APTT / Bas / Eos / Fbg / Hb / Ht / Lym / MCHC / MCV / Mono / Neu / PT / Plat / RBC / Ret / WBC: tissue Blood; for KIDNEY_L / KIDNEY_R / KIDNEY_TOTAL: tissue Kidney; for LIVER: tissue Liver; for ALP / ALT / AST / BUN / CRE / DBIL / GLC / IP / K / LDH / Na / PL / RALB / TBIL / TC / TG / TP / gamma-GTP: tissue Plasma
[1] = 1000 mg/kg, 3 h, dose level Middle
[2] = 1000 mg/kg, 6 h, dose level Middle
[3] = 1000 mg/kg, 9 h, dose level Middle
[4] = 1000 mg/kg, 24 h, dose level Middle
[5] = 2000 mg/kg, 3 h, dose level High
[6] = 2000 mg/kg, 6 h, dose level High
[7] = 2000 mg/kg, 9 h, dose level High
[8] = 2000 mg/kg, 24 h, dose level High

SMILES: C#C[C@]1(O)CC[C@H]2[C@@H]3CCC4=Cc5oncc5C[C@]4(C)[C@H]3CC[C@@]21C [DANAZOL]
- TERMINAL_BW [1]: 216 g
- APTT [1]: 22.9 s
- Bas [1]: 0%
- Eos [1]: 1%
- Fbg [1]: 300.8 mg/dL
- Hb [1]: 13.5 g/dL
- Ht [1]: 40.7%
- Lym [1]: 79.2%
- MCHC [1]: 33.1%
- MCV [1]: 63.8 fL
- Mono [1]: 2.4%
- Neu [1]: 16.2%
- PT [1]: 15.7 s
- Plat [1]: 103.2 x10_4/uL
- RBC [1]: 638.4 x10_4/ul
- Ret [1]: 7.1%
- WBC [1]: 83.8 x10_2/uL
- KIDNEY_L [1]: 0.9 g
- KIDNEY_R [1]: 0.9 g
- KIDNEY_TOTAL [1]: 1.8 g
- LIVER [1]: 9.6 g
- ALP [1]: 1405.8 IU/L
- ALT [1]: 41.8 IU/L
- AST [1]: 78 IU/L
- BUN [1]: 14 mg/dL
- CRE [1]: 0.2 mg/dL
- DBIL [1]: 0.002 mg/dL
- GLC [1]: 178.6 mg/dL
- IP [1]: 7.6 mg/dL
- K [1]: 4.1 meq/L
- LDH [1]: 128 IU/L
- Na [1]: 142.4 meq/L
- PL [1]: 129 mg/dL
- RALB [1]: 3 g/dL
- TBIL [1]: 0.022 mg/dL
- TC [1]: 66.6 mg/dL
- TG [1]: 73.4 mg/dL
- TP [1]: 5.5 g/dL
- gamma-GTP [1]: 1.8 IU/L
- TERMINAL_BW [2]: 216.7 g
- APTT [2]: 22.9 s
- Bas [2]: 0%
- Eos [2]: 1%
- Fbg [2]: 306.4 mg/dL
- Hb [2]: 13 g/dL
- Ht [2]: 39.6%
- Lym [2]: 74.2%
- MCHC [2]: 32.8%
- MCV [2]: 62.6 fL
- Mono [2]: 3%
- Neu [2]: 21%
- PT [2]: 16.4 s
- Plat [2]: 107.1 x10_4/uL
- RBC [2]: 633.6 x10_4/ul
- Ret [2]: 7.6%
- WBC [2]: 97.7 x10_2/uL
- KIDNEY_L [2]: 0.9 g
- KIDNEY_R [2]: 1 g
- KIDNEY_TOTAL [2]: 1.9 g
- LIVER [2]: 9.5 g
- ALP [2]: 1279 IU/L
- ALT [2]: 34.4 IU/L
- AST [2]: 70.8 IU/L
- BUN [2]: 10.2 mg/dL
- CRE [2]: 0.1 mg/dL
- DBIL [2]: 0.002 mg/dL
- GLC [2]: 181.8 mg/dL
- IP [2]: 9.3 mg/dL
- K [2]: 4.2 meq/L
- LDH [2]: 139.8 IU/L
- Na [2]: 141.4 meq/L
- PL [2]: 131.6 mg/dL
- RALB [2]: 3 g/dL
- TBIL [2]: 0.026 mg/dL
- TC [2]: 67 mg/dL
- TG [2]: 60.4 mg/dL
- TP [2]: 5.4 g/dL
- gamma-GTP [2]: 1.4 IU/L
- TERMINAL_BW [3]: 208.1 g
- APTT [3]: 21.9 s
- Bas [3]: 0%
- Eos [3]: 0.6%
- Fbg [3]: 302.4 mg/dL
- Hb [3]: 12.9 g/dL
- Ht [3]: 39.7%
- Lym [3]: 77.8%
- MCHC [3]: 32.6%
- MCV [3]: 62.9 fL
- Mono [3]: 2.2%
- Neu [3]: 18.6%
- PT [3]: 16.7 s
- Plat [3]: 114.4 x10_4/uL
- RBC [3]: 630.2 x10_4/ul
- Ret [3]: 7.3%
- WBC [3]: 82.7 x10_2/uL
- KIDNEY_L [3]: 0.9 g
- KIDNEY_R [3]: 1 g
- KIDNEY_TOTAL [3]: 1.9 g
- LIVER [3]: 8.6 g
- ALP [3]: 1309.4 IU/L
- ALT [3]: 33.6 IU/L
- AST [3]: 66.8 IU/L
- BUN [3]: 9.6 mg/dL
- CRE [3]: 0.1 mg/dL
- DBIL [3]: 0.014 mg/dL
- GLC [3]: 178.8 mg/dL
- IP [3]: 9.4 mg/dL
- K [3]: 4.2 meq/L
- LDH [3]: 139 IU/L
- Na [3]: 141.4 meq/L
- PL [3]: 109 mg/dL
- RALB [3]: 3 g/dL
- TBIL [3]: 0.038 mg/dL
- TC [3]: 54.4 mg/dL
- TG [3]: 53 mg/dL
- TP [3]: 5.4 g/dL
- gamma-GTP [3]: 1.6 IU/L
- TERMINAL_BW [4]: 216 g
- APTT [4]: 23.2 s
- Bas [4]: 0%
- Eos [4]: 1%
- Fbg [4]: 290 mg/dL
- Hb [4]: 13.6 g/dL
- Ht [4]: 41%
- Lym [4]: 81.5%
- MCHC [4]: 33.2%
- MCV [4]: 62.3 fL
- Mono [4]: 2.8%
- Neu [4]: 13.5%
- PT [4]: 17.8 s
- Plat [4]: 107.7 x10_4/uL
- RBC [4]: 658.6 x10_4/ul
- Ret [4]: 6.6%
- WBC [4]: 73 x10_2/uL
- KIDNEY_L [4]: 1 g
- KIDNEY_R [4]: 1 g
- KIDNEY_TOTAL [4]: 2 g
- LIVER [4]: 10.5 g
- ALP [4]: 1988.8 IU/L
- ALT [4]: 42.4 IU/L
- AST [4]: 72.2 IU/L
- BUN [4]: 13.8 mg/dL
- CRE [4]: 0.1 mg/dL
- DBIL [4]: 0 mg/dL
- GLC [4]: 184.6 mg/dL
- IP [4]: 6.5 mg/dL
- K [4]: 4.5 meq/L
- LDH [4]: 186 IU/L
- Na [4]: 141 meq/L
- PL [4]: 123 mg/dL
- RALB [4]: 3.1 g/dL
- TBIL [4]: 0.002 mg/dL
- TC [4]: 45.8 mg/dL
- TG [4]: 233.4 mg/dL
- TP [4]: 5.5 g/dL
- gamma-GTP [4]: 1.2 IU/L
- TERMINAL_BW [5]: 217 g
- APTT [5]: 22.7 s
- Bas [5]: 0%
- Eos [5]: 1%
- Fbg [5]: 312.2 mg/dL
- Hb [5]: 13.3 g/dL
- Ht [5]: 40.5%
- Lym [5]: 77.2%
- MCHC [5]: 33%
- MCV [5]: 62.8 fL
- Mono [5]: 3.2%
- Neu [5]: 18.2%
- PT [5]: 15.5 s
- Plat [5]: 120.2 x10_4/uL
- RBC [5]: 644 x10_4/ul
- Ret [5]: 7.3%
- WBC [5]: 73.3 x10_2/uL
- KIDNEY_L [5]: 1 g
- KIDNEY_R [5]: 1 g
- KIDNEY_TOTAL [5]: 2 g
- LIVER [5]: 9.7 g
- ALP [5]: 1466 IU/L
- ALT [5]: 45 IU/L
- AST [5]: 78 IU/L
- BUN [5]: 13.6 mg/dL
- CRE [5]: 0.1 mg/dL
- DBIL [5]: 0 mg/dL
- GLC [5]: 178.2 mg/dL
- IP [5]: 8.5 mg/dL
- K [5]: 4.4 meq/L
- LDH [5]: 162 IU/L
- Na [5]: 141 meq/L
- PL [5]: 138.4 mg/dL
- RALB [5]: 3.1 g/dL
- TBIL [5]: 0.02 mg/dL
- TC [5]: 68.2 mg/dL
- TG [5]: 99.2 mg/dL
- TP [5]: 5.4 g/dL
- gamma-GTP [5]: 1.8 IU/L
- TERMINAL_BW [6]: 217.1 g
- APTT [6]: 23.2 s
- Bas [6]: 0%
- Eos [6]: 1%
- Fbg [6]: 282.6 mg/dL
- Hb [6]: 12.6 g/dL
- Ht [6]: 39%
- Lym [6]: 75.4%
- MCHC [6]: 32.3%
- MCV [6]: 63.5 fL
- Mono [6]: 2.8%
- Neu [6]: 20.6%
- PT [6]: 16.5 s
- Plat [6]: 113.2 x10_4/uL
- RBC [6]: 613 x10_4/ul
- Ret [6]: 8.1%
- WBC [6]: 86.2 x10_2/uL
- KIDNEY_L [6]: 1 g
- KIDNEY_R [6]: 1 g
- KIDNEY_TOTAL [6]: 2 g
- LIVER [6]: 9.6 g
- ALP [6]: 1348.6 IU/L
- ALT [6]: 34.8 IU/L
- AST [6]: 69 IU/L
- BUN [6]: 12.2 mg/dL
- CRE [6]: 0.1 mg/dL
- DBIL [6]: 0 mg/dL
- GLC [6]: 178 mg/dL
- IP [6]: 8.5 mg/dL
- K [6]: 4.5 meq/L
- LDH [6]: 159.6 IU/L
- Na [6]: 140.4 meq/L
- PL [6]: 122.4 mg/dL
- RALB [6]: 2.9 g/dL
- TBIL [6]: 0.028 mg/dL
- TC [6]: 57.6 mg/dL
- TG [6]: 71.6 mg/dL
- TP [6]: 5.3 g/dL
- gamma-GTP [6]: 1.8 IU/L
- TERMINAL_BW [7]: 216.8 g
- APTT [7]: 23.7 s
- Bas [7]: 0%
- Eos [7]: 0.8%
- Fbg [7]: 276.2 mg/dL
- Hb [7]: 12.7 g/dL
- Ht [7]: 39.3%
- Lym [7]: 74.6%
- MCHC [7]: 32.3%
- MCV [7]: 63.9 fL
- Mono [7]: 2.8%
- Neu [7]: 20.8%
- PT [7]: 16.9 s
- Plat [7]: 110.6 x10_4/uL
- RBC [7]: 615.4 x10_4/ul
- Ret [7]: 7.2%
- WBC [7]: 77.3 x10_2/uL
- KIDNEY_L [7]: 1 g
- KIDNEY_R [7]: 1 g
- KIDNEY_TOTAL [7]: 2 g
- LIVER [7]: 9.1 g
- ALP [7]: 1416.2 IU/L
- ALT [7]: 31.6 IU/L
- AST [7]: 73.8 IU/L
- BUN [7]: 11.6 mg/dL
- CRE [7]: 0.2 mg/dL
- DBIL [7]: 0.004 mg/dL
- GLC [7]: 180.8 mg/dL
- IP [7]: 9.2 mg/dL
- K [7]: 4.2 meq/L
- LDH [7]: 128 IU/L
- Na [7]: 141.2 meq/L
- PL [7]: 110.8 mg/dL
- RALB [7]: 2.9 g/dL
- TBIL [7]: 0.032 mg/dL
- TC [7]: 47.2 mg/dL
- TG [7]: 99.4 mg/dL
- TP [7]: 5.2 g/dL
- gamma-GTP [7]: 1.4 IU/L
- TERMINAL_BW [8]: 217.9 g
- APTT [8]: 24.3 s
- Bas [8]: 0%
- Eos [8]: 1%
- Fbg [8]: 286.4 mg/dL
- Hb [8]: 13.3 g/dL
- Ht [8]: 39.8%
- Lym [8]: 74.8%
- MCHC [8]: 33.4%
- MCV [8]: 62.7 fL
- Mono [8]: 2.4%
- Neu [8]: 21.4%
- PT [8]: 18.6 s
- Plat [8]: 127.2 x10_4/uL
- RBC [8]: 635.8 x10_4/ul
- Ret [8]: 7.2%
- WBC [8]: 84.4 x10_2/uL
- KIDNEY_L [8]: 1 g
- KIDNEY_R [8]: 1 g
- KIDNEY_TOTAL [8]: 2 g
- LIVER [8]: 10.5 g
- ALP [8]: 1879.4 IU/L
- ALT [8]: 44.4 IU/L
- AST [8]: 76.8 IU/L
- BUN [8]: 12.2 mg/dL
- CRE [8]: 0.1 mg/dL
- DBIL [8]: 0 mg/dL
- GLC [8]: 186 mg/dL
- IP [8]: 6.9 mg/dL
- K [8]: 4.3 meq/L
- LDH [8]: 219.6 IU/L
- Na [8]: 141.6 meq/L
- PL [8]: 121.2 mg/dL
- RALB [8]: 3.1 g/dL
- TBIL [8]: 0 mg/dL
- TC [8]: 44.6 mg/dL
- TG [8]: 266.6 mg/dL
- TP [8]: 5.6 g/dL
- gamma-GTP [8]: 1.2 IU/L
